Data set [1] relates to Ryegrass, Italian (Italian ryegrass, Lolium multiflorum). The data set can be described thus: Test A preemergence, Ryegrass, Italian. It is filed as in vivo. Conditions: Lolium multiflorum, pre-emergence, 240 h, Preemergence; for pest or weed control at 125 g/ha: 125 g ai/ha; for pest or weed control at 500 g/ha: 500 g ai/ha. The procedure, abridged:
(§1)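 Preemergence: seeded pots of loam plus sand received a directed soil spray. Postemergence: seedlings at one to two leaves, 2 to 10 cm high, were oversprayed. Each compound was formulated in a non-phytotoxic solvent mix that included a surfactant.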

Data set [2] has the same test system. The data set can be described thus: Test A postemergence, Ryegrass, Italian. It is filed as in vivo. Conditions: Lolium multiflorum, post-emergence, 240 h, Postemergence, 0 to 100 scale (0 no effect, 100 complete control); for pest or weed control at 125 g/ha: 125 g ai/ha; for pest or weed control at 500 g/ha: 500 g ai/ha. The procedure, abridged: as §1
The subject of data set [3] is corn (Zea mays). The data set can be described thus: Test A postemergence, corn. It is filed as in vivo. Conditions: Zea mays, post-emergence, 240 h, Postemergence, 0 to 100 scale (0 no effect, 100 complete control); for Corn plant response rating (crop injury, 0 = no effect, 100 = complete kill) at 125 g/ha: 125 g ai/ha; for plant injury at 500 g/ha: visual injury vs untreated controls after approx. 10 days, read-out: Corn plant response rating. The gist of the method: as §1

Data set [4] relates to barnyardgrass (Echinochloa crus-galli). The data set is described as follows: Test B flooded paddy test, barnyardgrass. Conditions: 336 h, read-out: Plant response rating, Barnyardgrass.
In data set [5] the test system is pigweed (Amaranthus retroflexus). The data set can be described thus: Test A preemergence, pigweed. It is filed as in vivo. Conditions: Amaranthus retroflexus, pre-emergence, 240 h; for pest or weed control at 125 g/ha: 125 g ai/ha; for pest or weed control at 500 g/ha: 500 g ai/ha. The procedure, abridged:
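Compounds in non-phytotoxic solvent with surfactant. Soil: loam/sand. Preemergence via directed soil spray after seeding; postemergence on seedlings 2–10 cm, one- to two-leaf.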

Where [6] appears, read: visual injury on 0 to 100 scale (0 no effect, 100 complete control), approximately 10 days, read-out: Ryegrass, Italian plant response rating.
Where [7] appears, read: 0 to 100 scale (0 no effect, 100 complete control), read-out: Plant response rating, Ryegrass, Italian.
The mark [8] stands for this setting: visual injury approx. 10 days, read-out: Plant response rating, Ryegrass, Italian.
Setting [9] is: visual injury vs untreated controls after approx. 10 days, read-out: Ryegrass, Italian plant response rating.
Setting [10] is: visual injury on 0 to 100 scale (0 no effect, 100 complete control), approximately 10 days, read-out: Pigweed plant response rating.
Setting [11] is: 0 to 100 scale (0 no effect, 100 complete control), read-out: Plant response rating, Pigweed.
Setting [12] is: visual injury, 0 to 100 scale (0 no effect, 100 complete control), approx. 10 days, read-out: Plant response rating, Ryegrass, Italian.
The mark [13] stands for this setting: visual injury, 0 to 100 scale (0 no effect, 100 complete control), approx. 10 days, read-out: Plant response rating, Pigweed.
[14] abbreviates: read-out: Plant response rating, Ryegrass, Italian.

Read-outs that look alike come from different tables or passages of the source.

The results in this text go back to patent US20230278972A1, “SUBSTITUTED HALOALKYL SULFONANILIDE HERBICIDES” (FMC Corporation, priority 2020, published 2023).

For orientation: melting point means the temperature, or range, at which the solid turns liquid.

For `Cc1cc(C)c(C2=NOC3COCCC23)cc1NS(=O)(=O)C(F)(F)F` (centres unmarked) [Compound 121, N-[2,4-Dimethyl-5-(3a,4,7,7a-tetrahydro-5H-pyrano[4,3-d]isoxazol-3-yl)phenyl]-1,1,1-trifluoromethanesulfonamide], the melting point fell in the range of 117 to 120 °C. In addition, in data set [1] (setting [6]), the pest or weed control at 125 g/ha was 100%. Besides, the pest or weed control at 500 g/ha in data set [1] (setting [7]) was determined as 100%. Besides, the pest or weed control at 125 g/ha in data set [2] (setting [8]) was found to be 90%. Also, the pest or weed control at 500 g/ha in data set [2] (setting [9]) came out at 80%. Also, the Corn plant response rating (crop injury, 0 = no effect, 100 = complete kill) at 125 g/ha in data set [3] (visual injury approx. 10 days) came out at 50%. Besides, in data set [3] (500 g ai/ha), the plant injury at 500 g/ha was determined as 80%. The pest or weed control at 250 g/ha in data set [4] came to 40%.
Turning to `Cc1c(NS(=O)(=O)C(F)(F)F)cc(C(=O)N(C)C)c(C)c1F` [Compound 128, 3-Fluoro-N,N,2,4-tetramethyl-5-[[(trifluoromethyl)sulfonyl]amino]benzamide], the melting point fell in the range of 243 to 245 °C. The pest or weed control at 125 g/ha in data set [1] (setting [6]) is 100%. In addition, the pest or weed control at 500 g/ha in data set [1] (setting [7]) worked out at 100%. Besides, the pest or weed control at 125 g/ha in data set [5] (setting [10]) was found to be 100%. In addition, in data set [5] (setting [11]), the pest or weed control at 500 g/ha was 100%. In addition, the pest or weed control at 125 g/ha in data set [2] (setting [8]) came to 80%. Further, in data set [2] (setting [9]), the pest or weed control at 500 g/ha was 100%. Also, in data set [3] (visual injury approx. 10 days), the Corn plant response rating (crop injury, 0 = no effect, 100 = complete kill) at 125 g/ha stood at 10%. Moreover, the plant injury at 500 g/ha in data set [3] (500 g ai/ha) was found to be 60%. The pest or weed control at 250 g/ha in data set [4] was determined as 30%.
For the compound `Cc1c(NS(=O)(=O)C(F)(F)F)cc(C(=O)N2CCOCC2)c(C)c1F` [Compound 190, 1,1,1-Trifluoro-N-[3-fluoro-2,4-dimethyl-5-(4-morpholinylcarbonyl)phenyl]methanesulfonamide], the melting point is 236 to 240 °C. For the same compound, the pest or weed control at 125 g/ha in data set [1] (setting [12]) was 70%. Besides, in data set [1] (setting [7]), the pest or weed control at 500 g/ha is 100%. Moreover, the pest or weed control at 125 g/ha in data set [5] (setting [13]) came to 100%. Besides, the pest or weed control at 500 g/ha in data set [5] (setting [11]) stood at 100%. The pest or weed control at 125 g/ha in data set [2] (setting [14]) came to 80%. Moreover, the pest or weed control at 500 g/ha in data set [2] (setting [9]) worked out at 90%. For the same compound, the Corn plant response rating (crop injury, 0 = no effect, 100 = complete kill) at 125 g/ha in data set [3] was found to be 0%. In data set [3] (500 g ai/ha), the plant injury at 500 g/ha came to 30%. Further, in data set [4], the pest or weed control at 250 g/ha was 0%.
Turning to `Cc1cc(C)c(C(=O)N2CCC(F)(F)CC2)cc1NS(=O)(=O)C(F)(F)F` [Compound 241, N-[5-[(4,4-Difluoro-1-piperidinyl)carbonyl]-2,4-dimethylphenyl]-1,1,1-trifluoromethanesulfonamide], the pest or weed control at 125 g/ha in data set [1] (setting [12]) was determined as 70%; in data set [5] (setting [13]), 100%; in data set [2] (setting [14]), 0%. For the same compound, the pest or weed control at 500 g/ha was 100% in data set [1] (setting [6]), 100% in data set [5] (setting [10]) and 70% in data set [2] (setting [8]). In data set [3], this compound returned a Corn plant response rating (crop injury, 0 = no effect, 100 = complete kill) at 125 g/ha of 10%. The Corn plant response rating (crop injury, 0 = no effect, 100 = complete kill) at 500 g/ha in data set [3] (500 g ai/ha, visual injury approx. 10 days) is 20%. Moreover, the pest or weed control at 250 g/ha in data set [4] is 25%.
In the case of `Cc1c(NS(=O)(=O)C(F)(F)F)cc(C(=O)N2CCOCC2)c(C)c1C` [Compound 289, 1,1,1-Trifluoro-N-[2,3,4-trimethyl-5-(4-morpholinylcarbonyl)phenyl]methanesulfonamide], the melting point fell in the range of 247 to 250 °C.
